US20130183268A1, “DRUG COMBINATIONS WITH FLUORO-SUBSTITUTED OMEGA-CARBOXYARYL DIPHENYL UREA FOR THE TREATMENT AND PREVENTION OF DISEASES AND CONDITIONS” (BAYER HEALTHCARE LLC, priority 2010, published 2013)

Test: Pharmacokinetics in patients after 160 mg regorafenib co-precipitate tablet
Conditions: analyte in plasma, 160 mg regorafenib co-precipitate tablet daily, day 21, n = 9, geometric mean

With CNC(=O)c1cc(Oc2ccc(NC(=O)Nc3ccc(Cl)c(C(F)(F)F)c3)c(F)c2)ccn1 [Example 1, 4{4-[3-(4-chloro-3-trifluoromethylphenyl)-ureido]-3-fluorophenoxy}-pyridine-2-carboxylic acid methylamide] the “AUC Day 21” value was 61500 ng·h/mL and the “Cmax Day 21” value was 4170 ng/mL.
